Measured values from US5188955A, “Method of preserving arylacylamidase in aqueous solution” (GDS Technology, Inc., priority 1992, dated 1993).
“Also recorded” adds a separate entry of the source. Like-named read-outs stand apart in the source and are kept apart here.

Experiments:
Assay type in all cases: biochemical
arylacylamidase = experiment: General findings on effect of stabilizers on arylacylamidase
[1] = system: arylacylamidase E.C. 3.5.1.13; experiment: Stability of aqueous arylacylamidase solution at 37° C. with or without o-cresol (Example 1); settings: for Remaining enzyme activity: 37° C.
Description: (§1) Arylacylamidase enzyme was dissolved in water containing 50 mM borate buffer at various pH's at widely different concentrations of between 1 and 1500 U/L in the presence of between 1 and 12 mM o-cresol. The same solution of enzyme in buffer was prepared without o-cresol. Both sets of solutions were maintained at 37° C. for a period of two weeks. The enzyme activity was measured at the beginning of the period, as well as at certain times during the two week period. The enzyme activity was determined by a method which uses 50 mM Tris.HCl, pH 8.5, and 1 mM paranitroacetanilide as the enzyme substrate. In the presence of arylacylamidase, the p.nitroacetanilide is hydrolyzed to p-nitroaniline which absorbs at 405 nm. The kinetic assay was performed at 30° C. and 405 nm. One unit of enzyme activity is defined as 1 μ mole of p.nitroaniline formed using p-nitroacetanilide as a substrate at 30° C.

[2] = system: arylacylamidase E.C. 3.5.1.13; experiment: Stability of arylacylamidase dried on paper strips with or without o-cresol (Example 2); settings: 37° C., two weeks
Description: as §1
Two arylacylamidase aqueous solutions of 100 U/L were prepared in water containing 50 mM borate buffer, pH 8.0, one in the presence of 10 mM o-cresol and one in the absence of o-cresol. Whatman 54 and Whatman 3MM paper strips (2"×12") were impregnated with these solutions and dried. The dried paper strips were stored at 37° C. for two weeks. […] The enzyme activity was measured using the assay described in Example 1.

[3] = system: arylacylamidase E.C. 3.5.1.13; settings: 10 mM Tris-HCl pH 7.0
Description: as §1
An aqueous solutiOn of arylacylamidase, from about 100-200 U/mL, in 10 mM Tris-HCl buffer, which was maintained at pH 7.0, was lyophilized in the presence of various amounts of sodium benzoate and in the absence of sodium benzoate. After lyophilization, the enzyme samples were dissolved in deionized water to make an aqueous enzyme solution of 100 U/mL of water, and assayed for enzyme activity using the assay described in Example 1.

[4] = system: arylacylamidase E.C. 3.5.1.13; settings: 37° C., two weeks
[5] = system: arylacylamidase E.C. 3.5.1.13; settings: Arylacylamidase 21.6 U/mL with 1 mg/mL sodium benzoate, 10 mM Tris-HCl pH 7.0
Description: as §1
The arylacylamidase was dissolved in an aqueous buffer, such as in 10 mM Tris-HCl, pH 7.0, in the presence of 1 mg/ml sodium benzoate and in the absence of sodium benzoate.
The samples were maintained at 4° C., room temperature, and 37° C. The residual activity was determined using the enzyme assay described in Example 1.

O=C(O)c1ccccc1 [benzoic acid]
use as substrate / inhibition of arylacylamidase activity (arylacylamidase): neither compound is used by the enzyme as a substrate nor causes inhibition of the activity of arylacylamidase

Cc1ccccc1O [o-cresol]
use as substrate / inhibition of arylacylamidase activity (arylacylamidase): neither compound is used by the enzyme as a substrate nor causes inhibition of the activity of arylacylamidase | effect on stability of the enzyme (arylacylamidase; 10-100 mg/ml of ortho-cresol): enhances the stability of the enzyme | effect on the enzyme (arylacylamidase; higher concentrations of ortho-cresol, on the order of about 1%): inactivate the enzyme and make it unstable | effect on stability of arylacylamidase (arylacylamidase; o-cresol concentrations above about 0.5%): specifically destabilizes arylacylamidase; also recorded: act to destabilize the arylacylamidase enzyme | Remaining enzyme activity ([1]; pH 8.0, 2.8 mM o-cresol, 0 HRS): 13.6 U/ML | Remaining enzyme activity ([1]; pH 8.0, 2.8 mM o-cresol, 3 DAYS): 13.6 U/ML | Remaining enzyme activity ([1]; pH 8.0, 2.8 mM o-cresol, 5 HRS): 13.5 U/ML | Remaining enzyme activity ([1]; pH 8.0, 2.8 mM o-cresol, 7 DAYS): 12.3 U/ML | Remaining enzyme activity ([1]; pH 8.0, 2.8 mM o-cresol, 14 DAYS): 11.8 U/ML | Remaining enzyme activity ([1]; pH 8.0, 4.2 mM o-cresol, 0 HRS): 6.25 U/ML | Remaining enzyme activity ([1]; pH 8.0, 4.2 mM o-cresol, 3 DAYS): 6.20 U/ML | Remaining enzyme activity ([1]; pH 8.0, 4.2 mM o-cresol, 5 HRS): 6.16 U/ML | Remaining enzyme activity ([1]; pH 8.0, 4.2 mM o-cresol, 7 DAYS): 5.66 U/ML | Remaining enzyme activity ([1]; pH 8.0, 4.2 mM o-cresol, 14 DAYS): 5.36 U/ML | activity of aqueous solution of arylacylamidase maintained ([1]; pH 8.0, 14 days at 37° C., 2.8 mM o-cresol): over 80% | Remaining enzyme activity ([1]; pH 9.0, 2.2 mM o-cresol, 0 HRS): 13.6 U/ML | Remaining enzyme activity ([1]; pH 9.0, 2.2 mM o-cresol, 3 DAYS): 11.2 U/ML | Remaining enzyme activity ([1]; pH 9.0, 2.2 mM o-cresol, 5 HRS): 13.7 U/ML | Remaining enzyme activity ([1]; pH 9.0, 2.2 mM o-cresol, 7 DAYS): 9.26 U/ML | Remaining enzyme activity ([1]; pH 9.0, 2.2 mM o-cresol, 14 DAYS): 5.44 U/ML | Remaining enzyme activity ([1]; pH 9.0, 3.75 mM o-cresol, 0 HRS): 6.15 U/ML | Remaining enzyme activity ([1]; pH 9.0, 3.75 mM o-cresol, 3 DAYS): 5.03 U/ML | Remaining enzyme activity ([1]; pH 9.0, 3.75 mM o-cresol, 5 HRS): 6.20 U/ML | Remaining enzyme activity ([1]; pH 9.0, 3.75 mM o-cresol, 7 DAYS): 4.16 U/ML | Remaining enzyme activity ([1]; pH 9.0, 3.75 mM o-cresol, 14 DAYS): 2.36 U/ML | Residual Activity (Recovery) ([2]; Strips of Whatman 3 MM, 10 mM o-cresol): 40% | Residual Activity (Recovery) ([2]; Strips of Whatman 54, 10 mM o-cresol): 70%

O=C(O)c1ccccc1 [sodium benzoate]
% Recovery After Lyophilization ([3]; 1 mM sodium benzoate): 75% | % Recovery After Lyophilization ([3]; 5 mM sodium benzoate): 95% | % Recovery After Lyophilization ([3]; 10 mM sodium benzoate): 104% | Residual Activity (Recovery) ([4]; Strips of Whatman 3 MM, 10 mM sodium benzoate): 70% | Residual Activity (Recovery) ([4]; Strips of Whatman 54, 10 mM sodium benzoate): 85% | Remaining Activity at 4° C. (8 days) [5]: 80% | Remaining Activity at 37° C. (1 day) [5]: 85% | Remaining Activity at 37° C. (4 days) [5]: 30% | Remaining Activity at Room Temp (8 days) [5]: 71%
